Measurements taken from the supplement of paper PMC10949913.

Experiments:
CU-ACC1 = assay: area under concentration-response curve (viability) (AUC (a.u.)); higher = less active; settings: 48 h
Procedure, shortened: (§1)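 In 1,536-well plates, 500–1,000 cells/well of three adrenocortical carcinoma cell lines in 5 µL medium received 23 nL of each library compound across 11 concentrations. At 48 h, CellTiter-Glo was incubated for 15 minutes at room temperature and luminescence measured. Per-plate normalisation used vehicle and empty-well controls, and only inhibitory or non-responding curve classes were kept when fitting concentration-response curves for AC50 and area under the curve.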

NCI-H295R = assay: as above; settings: 48 h
Procedure, shortened: as §1

| SMILES | area under concentration-response curve (CU-ACC1) | area under concentration-response curve (NCI-H295R) |
| --- | --- | --- |
| C[C@H](NC(=O)Cc1cc(F)cc(F)c1)C(=O)N[C@@H]1C(=O)N(C)c2ccccc2-c2ccccc21 | 516 | 528 |
| CO[C@H]1CC[C@]2(CC1)CC3=C(C=C(C=C3)C4=CN=CC(=C4)C#CC)[C@@]2/5\N=C(C)/C(=N5)N | 487 | 532 |
| O=C(Nc1nc2ccccc2n1CCN1CCOCC1)c1cccc([N+](=O)[O-])c1 | 527 | 549 |
| CCOC(=O)O[C@@]1(CC[C@H]2[C@@H]3CCC/4=C/C(=O)/C=C\[C@]4(C)[C@H]3[C@@H](O)C[C@]12C)C(=O)OCCl | 364 | 395 |
| Cc1c(CCOc2ccc(C(=O)O)cc2)c2cc(Cl)ccc2n1C(c1ccccc1)c1ccccc1 | 536 | 600 |
| CCCC[S+](=N)([O-])CCC(N)C(=O)O (stereo not drawn) | 472 | 533 |
| OCCN1CCN(CCCN2c3ccccc3Sc3ccc(C(F)(F)F)cc32)CC1 | 432 | 279 |
| OC(=O)/C1=C/CCN(CCOC(C2=CC=C(C=C2)C(F)(F)F)C3=CC=C(C=C3)C(F)(F)F)C1 | 548 | 569 |
| Cn1c(CCCC(=O)O)nc2cc(N(CCCl)CCCl)ccc21 | 475 | 540 |
| CCCCOCCOc1nc(-c2ccc(C(=O)O)c(F)c2)sc1C | 367 | 399 |
| O=C(CCNC(=O)c1ccc(OC(F)(F)F)cc1)N[C@@H]1CCCc2ccccc21 | 149 | 81 |
| COC1=C(OC)C(=O)C(C/C=C(\C)CC/C=C(\C)CC/C=C(\C)CC/C=C(/C)CC/C=C(\C)CC/C=C(\C)CC/C=C(\C)CC/C=C(\C)CC/C=C(\C)CCC=C(C)C)=C(C)C1=O | 502 | 559 |
| CC(C)(C)C(=O)N1\N=C/C[C@H]1C2=CC=CC=C2 | 549 | 568 |
| CCOc1ccc(Cc2cc([C@@H]3O[C@H](CO)[C@@H](O)[C@H](O)[C@H]3O)ccc2Cl)cc1 | 464 | 494 |
| N[C@@H](Cc1c[nH]c2ccc(O)cc12)C(=O)O | 483 | 567 |
| Cn1cnc2c1c(=O)[nH]c(=O)n2C | 544 | 575 |
| Cc1c[nH]c(-c2cnc(NCCNc3ccc(C#N)cn3)nc2-c2ccc(Cl)cc2Cl)n1 | 538 | 558 |
| CC1(C)CN(C(=O)c2ccc(-c3cccc4nc(NC(=O)C5CC5)nn34)cc2)C1 | 345 | 381 |
| CC(C)c1ccccc1Cc1cc(C(=O)Nc2ccc([S+](=O)([O-])c3ccccc3C(C)(C)C)cc2)c(O)c(O)c1O | 293 | 205 |
| CN(C[C@@H]1COCCO1)[S+]([O-])(=O)NC2=CC3=C(C=C2)\C=C/C4=C(C=C(C=N4)C5=C[N](C)N=C5)C3=O | 547 | 578 |
| O=C(O)/C(S)=C/c1ccc(I)cc1 | 368 | 459 |
| Cc1csc(-c2nnc(Nc3ccc(Oc4ncccc4-c4ccnc(N)n4)cc3)c3ccccc23)c1 | 504 | 470 |
| CC1=NN(c2ccc(C)c(C)c2)C(=O)/C1=N/Nc1cccc(-c2cccc(C(=O)O)c2)c1O | 437 | 500 |
| CCCCC[C@H](O)/C=C/[C@H]1[C@H](O)CC(=O)[C@@H]1C/C=C\CCCC(=O)O | 485 | 529 |
| O=C1OC(COc2ccccc2[N+](=O)[O-])CC1Cc1ccccc1 (stereo not drawn) | 412 | 521 |

| SMILES | area under concentration-response curve (CU-ACC1) | area under concentration-response curve (NCI-H295R) |
| --- | --- | --- |
| CC(=O)Oc1ccccc1C(=O)O | 357 | 402 |
| C[N]1N=CC=C1C/2=C(\C)N(C(=O)C(=C2)/C(=O)NCC3=NC=C(C=C3)[S+](C)([O-])=O)C4=CC=CC(=C4)C(F)(F)F | 380 | 277 |
| Cc1ccc(Nc2cc(N[C@@H]3CCCC[C@@H]3N)nnc2C(N)=O)nc1C | 516 | 568 |
| COC/1=C(\CNC(=O)C2=C(C)[N]([C@H](C)C3CCOCC3)C4=CC=CC=C24)C(=O)NC(=C1)/C | 357 | 429 |
| CCCN1CCN(c2ccc(C(=O)NC3(C(=O)NCC#N)CCCCC3)cc2)CC1 | 375 | 299 |
| CCOC(=O)Nc1ccc(NCc2ccc(F)cc2)cc1N | 543 | 578 |
| C[C@@H]1CC(=O)Nc2cccc(-c3cnn(C(C)(C)C)c3)c2N1 | 551 | 570 |
| CC#CC(=O)N1CCC[C@H]1c1nc(-c2ccc(C(=O)Nc3ccccn3)cc2)c2c(N)nccn12 | 474 | 509 |
| O=C(Nc1cccc(C(F)(F)F)c1)c1cccc2cc(Oc3cc(CO)ncn3)ccc12 | 516 | 579 |
| CC1(C)[C@@H](O)CC[C@@]2(C)[C@H]1CC[C@]3(C)[C@@H]2C(=O)\C=C/4[C@@H]5C[C@](C)(CC[C@]5(C)CC[C@@]34C)C(O)=O | 512 | 545 |
| CN1C(=O)[C@@H](NC(=O)c2nc(Cc3ccccc3)n[nH]2)COc2ccccc21 | 536 | 559 |
| O=C(NOCCO)c1cc(CN2OCCCC2=O)c(F)c(F)c1Nc1ccc(I)cc1F | 267 | 267 |
| COC(=O)N1CC2(CC2)C[C@H](C(=O)NO)[C@H]1C(=O)N1CCN(c2ccccc2)CC1 | 412 | 470 |
| CN(C)C1=C(Br)C=C(C=C1)C\2NC3=C(\C4=C2C(=O)CC(C)(C)C4)C5=CC=CC=C5C=C3 (stereo not drawn) | 506 | 515 |
| Cc1cc(Oc2ccc3nc(COc4ccc(CC5SC(=O)NC5=O)cc4)n(C)c3c2)cc(C)c1N (stereo not drawn) | 512 | 556 |
| COC(=O)[C@@H]1CC/2=C/C(=O)CC[C@]2(C)[C@@]34O[C@@H]3C[C@@]5(C)[C@@H](CC[C@@]56CCC(=O)O6)[C@H]14 | 355 | 528 |
| C=C1C[C@@]2(O)O[C@@]3(C[C@H]2C(C)C)[C@@H](C)CC[C@@H]13 | 487 | 541 |
| CC(C)(O)[C@H]1CC[C@@](C)([C@H]2[C@@H](O)C[C@@]3(C)[C@@H]4C[C@H](O[C@@H]5O[C@H](CO)[C@@H](O)[C@H](O)[C@H]5O)[C@H]5C(C)(C)[C@@H](O[C@@H]6OC[C@@H](O)[C@H](O)[C@H]6O)CC[C@@]56C[C@@]46CC[C@]23C)O1 | 535 | 547 |
| Cc1ccccc1C(=O)Nc1ccc(C(=O)N2CCCC(O)c3cc(Cl)ccc32)c(C)c1 (stereo not drawn) | 484 | 536 |
| O=C\1N(N\C=C1[N]2C=CN=N2)C3=NC=NC(=C3)N4CCOCC4 | 492 | 521 |
| C[C@H]1C[C@H]2[C@@H]3CC[C@](O)(C(=O)CO)[C@@]3(C)C[C@H](O)[C@@H]2[C@@]\4(C)/C=C\C(=O)\C=C14 | 520 | 553 |
| Cn1cc(-c2ccc3c(c2)CCN3C(=O)Cc2cccc(C(F)(F)F)c2)c2c(N)ncnc21 | 523 | 577 |
| CN1CCN(CC1)C2=NC3=C(C=CC=C3)C(=N2)C/4=C(/C(=O)NC4=O)C5=C[NH]C6=C5C=CC=C6 | 498 | 523 |
| O=C(NNc1ccccc1)c1ccncc1 | 483 | 527 |
